# In PubChem BioAssay (NCI):
#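 48-hour exposure; five concentrations; linearly interpolated endpoints. GI50 marks 50% less growth. TGI marks complete inhibition of growth.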
# Columns and labels:
# Experiment in all cases: NCI tumour cell line growth inhibition, 48 h
# [1] = system: LOX IMVI melanoma
# [2] = system: A498 renal
# [3] = system: K-562 leukemia
# [4] = system: SK-MEL-28 melanoma
# [5] = system: HL-60(TB) leukemia
# [6] = system: NCI-H460 lung
# [7] = system: SK-MEL-2 melanoma
# [8] = system: M14 melanoma
# [9] = system: MALME-3M melanoma
# [10] = system: SF-268 CNS
# [11] = system: OVCAR-8 ovarian
# [12] = system: CAKI-1 renal
# [13] = system: SNB-19 CNS
# [14] = system: PC-3 prostate
# [15] = system: UO-31 renal
# [16] = system: MDA-MB-435
# [17] = system: MCF7 breast
# [18] = system: UACC-62 melanoma
# [19] = system: A549 NSCLC
# [20] = system: HCT-116 colon
# [21] = system: NCI-H522 lung
# [22] = system: COLO 205 colon
# [23] = system: HCT-15 colon
# [24] = system: SF-295 CNS
# [25] = system: NCI/ADR-RES ovarian
# [26] = system: UACC-257 melanoma
# [27] = system: HOP-92 NSCLC
# [28] = system: IGROV1 ovarian
# [29] = system: RXF 393 renal
# [30] = system: U251 CNS
# [31] = system: T-47D breast
# [32] = system: SF-539 CNS
# [33] = system: OVCAR-4 ovarian
# [34] = system: CCRF-CEM leukemia
# [35] = system: MDA-MB-231 breast
# [36] = system: KM12 colon
# [37] = system: 786-0 renal
# [38] = system: NCI-H23 lung
# [39] = system: BT-549 breast
# [40] = system: HCC-2998 colon
# [41] = system: EKVX NSCLC
# [42] = system: TK-10 renal
# [43] = system: HS 578T breast
# [44] = system: RPMI-8226 leukemia
# [45] = system: SK-MEL-5 melanoma
# [46] = system: SN12C renal
# [47] = system: DU-145 prostate
# [48] = system: NCI-H226 lung
# [49] = system: HOP-62 NSCLC
# [50] = system: MOLT-4 leukemia
# [51] = system: SK-OV-3 ovarian
# [52] = system: SW-620 colon
# [53] = system: SR leukemia
# [54] = system: OVCAR-5 ovarian
# [55] = system: SNB-75 CNS
# [56] = system: ACHN renal
# [57] = system: HT29 colon
smiles,measurement,setting,value
Oc1ccc(CSc2nnc(-c3ccc(Oc4ccccc4)cc3)n2-c2ccccc2)c2cccnc12,GI50,[1],169 nM
same,TGI,[1],7180 nM
same,GI50,[2],641 nM
same,TGI,[2],19800 nM
same,GI50,[3],155 nM
same,TGI,[3],> 53100 nM
same,GI50,[4],247 nM
same,TGI,[4],> 100000 nM
same,GI50,[5],79.8 nM
same,TGI,[5],1060 nM
same,GI50,[6],38.5 nM
same,GI50,[7],442 nM
same,TGI,[7],> 25500 nM
same,GI50,[8],95.4 nM
same,TGI,[8],1120 nM
same,GI50,[9],340 nM
same,TGI,[9],11000 nM
same,GI50,[10],73.9 nM
same,TGI,[10],> 100000 nM
same,GI50,[11],146 nM
same,TGI,[11],> 46500 nM
same,GI50,[12],313 nM
same,TGI,[12],15200 nM
same,GI50,[13],223 nM
same,TGI,[13],> 100000 nM
same,GI50,[14],83.4 nM
same,TGI,[14],> 100000 nM
same,GI50,[15],142 nM
same,TGI,[15],2450 nM
same,GI50,[16],57 nM
same,TGI,[16],> 100000 nM
same,GI50,[17],94.2 nM
same,TGI,[17],> 100000 nM
same,GI50,[18],256 nM
same,TGI,[18],1130 nM
same,GI50,[19],133 nM
same,TGI,[19],> 33200 nM
same,GI50,[20],41.3 nM
same,TGI,[20],16000 nM
same,GI50,[21],226 nM
same,GI50,[22],1270 nM
same,TGI,[22],> 100000 nM
same,GI50,[23],179 nM
same,TGI,[23],> 100000 nM
same,GI50,[24],208 nM
same,TGI,[24],> 69200 nM
same,GI50,[25],270 nM
same,TGI,[25],6990 nM
same,GI50,[26],186 nM
same,TGI,[26],843 nM
same,GI50,[27],213 nM
same,TGI,[27],31800 nM
same,GI50,[28],166 nM
same,TGI,[28],> 55900 nM
same,GI50,[29],981 nM
same,TGI,[29],> 58700 nM
same,GI50,[30],69.6 nM
same,TGI,[30],> 35600 nM
same,GI50,[31],263 nM
same,TGI,[31],9180 nM
same,GI50,[32],230 nM
same,TGI,[32],9870 nM
same,GI50,[33],451 nM
same,TGI,[33],> 72300 nM
same,GI50,[34],72.9 nM
same,TGI,[34],> 100000 nM
same,GI50,[35],355 nM
same,TGI,[35],33000 nM
same,GI50,[36],176 nM
same,TGI,[36],> 100000 nM
same,GI50,[37],527 nM
same,TGI,[37],11300 nM
same,GI50,[38],260 nM
same,TGI,[38],25600 nM
same,GI50,[39],105 nM
same,TGI,[39],> 100000 nM
same,GI50,[40],154 nM
same,TGI,[40],> 100000 nM
same,GI50,[41],339 nM
same,TGI,[41],> 100000 nM
same,GI50,[42],153 nM
same,TGI,[42],> 42400 nM
same,GI50,[43],325 nM
same,TGI,[43],> 100000 nM
same,GI50,[44],146 nM
same,TGI,[44],> 100000 nM
same,GI50,[45],222 nM
same,TGI,[45],2400 nM
same,GI50,[46],275 nM
same,TGI,[46],> 100000 nM
same,GI50,[47],340 nM
same,TGI,[47],> 100000 nM
same,GI50,[48],369 nM
same,TGI,[48],> 100000 nM
same,GI50,[49],304 nM
same,TGI,[49],> 34600 nM
same,GI50,[50],100 nM
same,TGI,[50],> 38500 nM
same,GI50,[51],307 nM
same,GI50,[52],182 nM
same,TGI,[52],> 100000 nM
same,GI50,[53],66.4 nM
same,TGI,[53],20300 nM
same,GI50,[54],639 nM
same,TGI,[54],> 100000 nM
same,GI50,[55],188 nM
same,TGI,[55],22700 nM
same,GI50,[56],137 nM
same,TGI,[56],10900 nM
same,GI50,[57],4100 nM
same,TGI,[57],> 100000 nM
